This data set is described as follows: Microscopic observation of gel compositions for methylparaben crystalline particles. It is filed as physicochemical. As for the experimental part: Microscopic observations were performed on additional representative batches of brimonidine topical gel compositions and placebo gel compositions containing 1.25% (w/w) carbomer, POBM and other ingredients. The observations have been done on one tube of each batch, with the microscope Axiolab DRBKT Zeiss no. 023733.01 with a camera ICC Zeiss or the microscope Olympus BX60. The microscopic observations were done at 5° C. and room temperature.
Numerous formulations with different ingredients and varying concentrations of the ingredients were made and tested for the presence of the paraben crystals by microscopic observations. The microbiological quality of the formulations was also analyzed by using acceptance-test criteria in preservative-efficacy testing (PET) in the United States Pharmacopeia (USP) and the European Pharmacopoeia (EP).

Turning to `COC(=O)c1ccc([O-])cc1.[Na+]` [Na POBM], the “crystalline particles in formulation” value (methylparaben replaced with Na POBM at 0.3% (w/w)) is on record as “crystalline particles of Na POBM were still observed”. For the compound `COC(=O)c1ccc(O)cc1` [methylparaben, methyl parahydroxybenzoate], the recrystallization in formulation result (addition of 0.1% of EDTA, POBM at 0.3% (w/w)) was “immediate recrystallization”.

The values are drawn from patent US10201517B2, “Brimonidine gel compositions and methods of use” (Galderma Laboratories, L.P., priority 2010, dated 2019).
